Test results from patent US7138543B2, “Thiolalkyl benzoic acid derivatives” (Guilford Pharmaceuticals Inc., priority 2001, dated 2006).

Tests used:
BB/W diabetic rats = assay: Nerve conduction velocity in BB/W model; format: in vivo; details: 10 mg/kg daily; vs diabetic vehicle controls, from 8 weeks to six months, FIG. 12
Description: Male BB/W rats (BRI, Mass) spontaneously develop a cell mediated autoimmune destruction of pancreatic B cells, resulting in onset of insulin-dependent (Type I) diabetes (Awata, Guberski, Endocrinology (1995) 136(12):5731–5). […] This renders them valuable for experimental trials of new compounds for future treatments of this major disorder. In the present study, Compound A and Compound D were examined for their ability to alter the progression of diabetic neuropathy. The rats received daily injection of Compound A or Compound D (10 mg/kg i.p.) or vehicle, starting at the onset of diabetes (hyperglycemia) and up to 6 months thereafter. Another group of non-diabetic rats also receiving vehicle were tested. All animals were continuously monitored for body weight, urine volume, blood sugar and glycated haemoglobin. In the first month of the study, all animals were tested for thermal nociception in a Hargreaves apparatus, weekly. After the first month this was done biweekly and then monthly. […]
Nerve conduction velocity was also measured every two weeks through the first eight weeks of treatment and every month thereafter through to the six months of treatment (see De Koning et al., Peptides, Vol. 8, No. 3, pp. 415–22 (1987) for a description of the experimental method). […]

[1] = tested on: rats with unilaterally transected optic nerve; assay: Optic nerve transection (optic nerve fiber counting); format: in vivo, Rattus norvegicus; details: for FIBER NUMBER: 10 mg/kg daily intraperitoneal
Description: All experiments complied with the Association for Research in Vision and Ophthalmology Statement for the Use of Animals in Ophthalmic and Vision Research. 82 male Brown Norway rats (Rattus norvegicus), each weighing approximately 250 gm, were treated using procedures approved by the Animal Care Committee of the Johns Hopkins University School of Medicine. The rats were housed with a 12 hour light/12 hour dark cycle and fed ad libitum.
OPTIC NERVE TRANSECTION: The optic nerve was transected unilaterally in 26 rats under intraperitoneal pentobarbital anesthesia. The conjunctiva was opened with scissors and the optic nerve exposed by traction on extraocular muscles. The transection was performed with microscissors 5 mm posterior to the globe, with specific attention to avoidance of injury to major ocular blood vessels. Immediately after transection, the retina was examined ophthalmoscopically to assure that the retinal arterial blood supply was not disrupted. The conjunctiva was closed with absorbable suture and the eye dressed with antibiotic ointment. Beginning on the day of transection, the rats were treated daily with intraperitoneal injections of either a vehicle (9 rats with 50 mM HEPES-buffered saline) or a NAALADase inhibitor (8 rats with 10 mg/kg of Compound A and 9 rats with 10 mg/kg of Compound B). 5 saline treated rats, 3 Compound A treated rats, and 4 Compound B treated rats were sacrificed at 2 weeks, and the remaining rats at 4 weeks, after transection.
OPTIC NERVE COUNTING: The rats were sacrificed by exsanguination under deep pentobarbital anesthesia. They were perfused through the heart with 2% paraformaldehyde/2% glutaraldehyde in 0.1 M phosphate buffer, pH 7.2, and the eyes with attached optic nerves were removed. A cross-section of the optic nerve from both experimental (glaucoma or transection) and control eyes was removed 1.5 mm posterior to the globe, 1 mm in thickness, and post-fixed in 2% osmium tetroxide in buffer. These were processed into epoxy resin, sectioned at 1 micron and stained with toluidine blue.
The area of the optic nerve cross-section was measured by outlining its outer border at 10× magnification on an image analysis system (Universal Imaging Corp., Westchester, Pa.) with Synsys digital camera and Metamorph software. Three area measurements were taken and the mean value was determined. To measure the density and fiber diameter distributions, images were captured with a 100× phase contrast objective from 10 different areas of each nerve. These were edited to eliminate non-neural objects and the size of each axon internal to the myelin sheath (its minimum diameter) and the density of axons/square mm were calculated for each image and nerve. The mean density was multiplied by total nerve area to yield fiber number for each nerve. The total fiber number in glaucoma or transection nerves was compared to the normal, fellow eye of each rat to yield a percent loss value. The number of axons counted among the 10 images was an approximately 20% sample of the 80–90,000 axons in normal rat nerves. The person measuring axon number was masked to the protocol conducted on the nerves.

[2] = 2 weeks survival after transection
[3] = 4 weeks survival after transection

SMILES: O=C(O)CCC(CP(=O)(O)Cc1c(F)c(F)c(F)c(F)c1F)C(=O)O (stereo not drawn) [Compound A]
- nerve conduction velocity (BB/W diabetic rats): significantly less severe nerve conduction deficits
- remaining axons relative to the saline-treated rats ([1]; 2 weeks after transection): 3 times
- PERCENT DIFFERENCE in fiber number [1, 2]: 65.3 ± 30.9%
- FIBER NUMBER [1, 2]: 26,426 ± 23,025
- PERCENT DIFFERENCE in fiber number [1, 3]: 82.4 ± 8.9%
- FIBER NUMBER [1, 3]: 13,599 ± 7,868
